Test results: the kinase profiling compilation of Christmann-Franck et al. (2016)
Each block holds one molecule with its values, some of them ahead of it.

Columns and labels:
Experiment in all cases: radiometric filter-binding kinase assay
MAPK7 (human) = MAPK7 (human) (UniProt Q13164)
PLK1 (human) = PLK1 (human) (UniProt P53350)
STK24 (human) = STK24 (human) (UniProt Q9Y6E0)
MAP4K3 (human) = MAP4K3 (human) (UniProt Q8IVH8)
TESK1 (human) = TESK1 (human) (UniProt Q15569)
STK33 (human) = STK33 (human) (UniProt Q9BYT3)
ZAP70 (human) = ZAP70 (human) (UniProt P43403)
WNK1 (human) = WNK1 (human) (UniProt Q9H4A3)
[1] = molecular target: PRKAA1 PRKAB2 PRKAG1 (human) (UniProt O43741+Q13131+P54619)
CSNK1G2 (human) = CSNK1G2 (human) (UniProt P78368)
EIF2AK3 (human) = EIF2AK3 (human) (UniProt Q9NZJ5)
IRAK1 (human) = IRAK1 (human) (UniProt P51617)
ULK1 (human) = ULK1 (human) (UniProt O75385)
TTBK2 (human) = TTBK2 (human) (UniProt Q6IQ55)
MAP4K5 (human) = MAP4K5 (human) (UniProt Q9Y4K4)
DDR2 (human) = DDR2 (human) (UniProt Q16832)
[2] = tested on: TGFBR1 (human), P36897 [T204D]
PDGFRA (human) = PDGFRA (human) (UniProt P16234)
TTBK1 (human) = TTBK1 (human) (UniProt Q5TCY1)
SIK3 (human) = SIK3 (human) (UniProt Q9Y2K2)
PTK6 (human) = PTK6 (human) (UniProt Q13882)
[3] = tested on: OXSR1 (human), O95747 [T185E]
SIK2 (human) = SIK2 (human) (UniProt Q9H0K1)
CDK9 CCNT1 (human) = CDK9 CCNT1 (human) (UniProt P50750+O60563)
ABL1 (human) = ABL1 (human) (UniProt P00519)
TLK1 (human) = TLK1 (human) (UniProt Q9UKI8)
PRKCG (human) = PRKCG (human) (UniProt P05129)
TSSK1B (human) = TSSK1B (human) (UniProt Q9BXA7)
TEK (human) = TEK (human) (UniProt Q02763); settings: compound 1.0 µM
ULK2 (human) = ULK2 (human) (UniProt Q8IYT8)
STK16 (human) = STK16 (human) (UniProt O75716)

Chain of PDGFRA (human) (P16234 whole entry, looked up): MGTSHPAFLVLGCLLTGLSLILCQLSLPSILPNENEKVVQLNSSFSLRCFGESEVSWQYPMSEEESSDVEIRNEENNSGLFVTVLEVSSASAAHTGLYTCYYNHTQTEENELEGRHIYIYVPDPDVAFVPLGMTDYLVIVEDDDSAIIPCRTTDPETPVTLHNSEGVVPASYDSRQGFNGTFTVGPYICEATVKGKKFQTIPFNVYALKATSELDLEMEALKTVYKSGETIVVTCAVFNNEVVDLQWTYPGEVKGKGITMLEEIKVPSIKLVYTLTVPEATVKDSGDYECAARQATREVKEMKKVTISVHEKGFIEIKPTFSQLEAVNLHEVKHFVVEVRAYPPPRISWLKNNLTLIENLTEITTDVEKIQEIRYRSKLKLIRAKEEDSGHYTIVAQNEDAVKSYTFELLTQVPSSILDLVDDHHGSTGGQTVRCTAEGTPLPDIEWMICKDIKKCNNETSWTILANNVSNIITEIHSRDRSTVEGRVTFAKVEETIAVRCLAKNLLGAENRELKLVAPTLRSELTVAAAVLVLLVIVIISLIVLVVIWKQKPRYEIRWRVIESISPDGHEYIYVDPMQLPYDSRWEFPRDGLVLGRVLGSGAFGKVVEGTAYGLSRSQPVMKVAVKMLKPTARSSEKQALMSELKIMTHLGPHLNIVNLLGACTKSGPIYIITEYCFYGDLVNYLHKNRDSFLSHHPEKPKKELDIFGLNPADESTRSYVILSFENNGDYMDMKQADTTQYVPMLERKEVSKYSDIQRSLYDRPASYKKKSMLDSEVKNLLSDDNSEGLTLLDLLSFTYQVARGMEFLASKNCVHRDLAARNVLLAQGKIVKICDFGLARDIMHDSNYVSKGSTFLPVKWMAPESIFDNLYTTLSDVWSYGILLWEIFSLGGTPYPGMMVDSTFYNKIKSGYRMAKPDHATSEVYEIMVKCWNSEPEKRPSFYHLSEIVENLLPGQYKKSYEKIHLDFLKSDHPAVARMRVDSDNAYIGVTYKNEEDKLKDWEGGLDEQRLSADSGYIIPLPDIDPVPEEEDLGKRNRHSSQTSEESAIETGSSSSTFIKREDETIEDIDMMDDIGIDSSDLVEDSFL
Chain of ZAP70 (human) (P43403 whole entry, looked up): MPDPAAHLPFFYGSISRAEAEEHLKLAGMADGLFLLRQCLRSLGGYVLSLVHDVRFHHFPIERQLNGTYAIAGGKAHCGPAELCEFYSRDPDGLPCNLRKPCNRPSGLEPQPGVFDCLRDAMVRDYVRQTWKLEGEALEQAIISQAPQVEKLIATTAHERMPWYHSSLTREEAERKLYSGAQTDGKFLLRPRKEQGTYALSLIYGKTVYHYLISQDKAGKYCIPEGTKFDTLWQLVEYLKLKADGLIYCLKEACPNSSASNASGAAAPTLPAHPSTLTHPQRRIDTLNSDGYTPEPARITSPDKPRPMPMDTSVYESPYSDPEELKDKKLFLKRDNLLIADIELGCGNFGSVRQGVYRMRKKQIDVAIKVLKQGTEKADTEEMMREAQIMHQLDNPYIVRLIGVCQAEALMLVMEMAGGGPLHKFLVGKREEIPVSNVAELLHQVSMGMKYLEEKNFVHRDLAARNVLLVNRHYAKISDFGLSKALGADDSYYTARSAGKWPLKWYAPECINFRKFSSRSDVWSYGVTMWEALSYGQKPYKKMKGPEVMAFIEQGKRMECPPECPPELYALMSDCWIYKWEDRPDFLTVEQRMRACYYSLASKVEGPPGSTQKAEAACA
Chain of IRAK1 (human) (P51617 whole entry, looked up): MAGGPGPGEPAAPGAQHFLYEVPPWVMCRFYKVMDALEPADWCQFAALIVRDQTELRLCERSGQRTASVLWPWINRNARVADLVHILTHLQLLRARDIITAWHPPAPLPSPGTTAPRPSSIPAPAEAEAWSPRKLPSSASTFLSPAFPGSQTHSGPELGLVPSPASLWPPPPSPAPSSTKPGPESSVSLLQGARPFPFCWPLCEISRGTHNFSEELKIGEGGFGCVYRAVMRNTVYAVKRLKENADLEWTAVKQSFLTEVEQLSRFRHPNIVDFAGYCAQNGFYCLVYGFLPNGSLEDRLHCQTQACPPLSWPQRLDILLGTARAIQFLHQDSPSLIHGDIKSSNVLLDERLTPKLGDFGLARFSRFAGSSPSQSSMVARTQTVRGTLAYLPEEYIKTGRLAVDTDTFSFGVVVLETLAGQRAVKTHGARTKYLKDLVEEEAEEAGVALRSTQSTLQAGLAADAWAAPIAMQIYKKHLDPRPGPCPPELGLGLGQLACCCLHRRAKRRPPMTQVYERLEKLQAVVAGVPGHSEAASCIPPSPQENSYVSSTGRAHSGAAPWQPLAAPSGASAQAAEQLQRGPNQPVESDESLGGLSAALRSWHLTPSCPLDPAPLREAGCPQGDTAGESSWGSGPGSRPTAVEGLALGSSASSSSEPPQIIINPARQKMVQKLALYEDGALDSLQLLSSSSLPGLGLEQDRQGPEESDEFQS
Chain of ULK1 (human) (O75385 whole entry, looked up): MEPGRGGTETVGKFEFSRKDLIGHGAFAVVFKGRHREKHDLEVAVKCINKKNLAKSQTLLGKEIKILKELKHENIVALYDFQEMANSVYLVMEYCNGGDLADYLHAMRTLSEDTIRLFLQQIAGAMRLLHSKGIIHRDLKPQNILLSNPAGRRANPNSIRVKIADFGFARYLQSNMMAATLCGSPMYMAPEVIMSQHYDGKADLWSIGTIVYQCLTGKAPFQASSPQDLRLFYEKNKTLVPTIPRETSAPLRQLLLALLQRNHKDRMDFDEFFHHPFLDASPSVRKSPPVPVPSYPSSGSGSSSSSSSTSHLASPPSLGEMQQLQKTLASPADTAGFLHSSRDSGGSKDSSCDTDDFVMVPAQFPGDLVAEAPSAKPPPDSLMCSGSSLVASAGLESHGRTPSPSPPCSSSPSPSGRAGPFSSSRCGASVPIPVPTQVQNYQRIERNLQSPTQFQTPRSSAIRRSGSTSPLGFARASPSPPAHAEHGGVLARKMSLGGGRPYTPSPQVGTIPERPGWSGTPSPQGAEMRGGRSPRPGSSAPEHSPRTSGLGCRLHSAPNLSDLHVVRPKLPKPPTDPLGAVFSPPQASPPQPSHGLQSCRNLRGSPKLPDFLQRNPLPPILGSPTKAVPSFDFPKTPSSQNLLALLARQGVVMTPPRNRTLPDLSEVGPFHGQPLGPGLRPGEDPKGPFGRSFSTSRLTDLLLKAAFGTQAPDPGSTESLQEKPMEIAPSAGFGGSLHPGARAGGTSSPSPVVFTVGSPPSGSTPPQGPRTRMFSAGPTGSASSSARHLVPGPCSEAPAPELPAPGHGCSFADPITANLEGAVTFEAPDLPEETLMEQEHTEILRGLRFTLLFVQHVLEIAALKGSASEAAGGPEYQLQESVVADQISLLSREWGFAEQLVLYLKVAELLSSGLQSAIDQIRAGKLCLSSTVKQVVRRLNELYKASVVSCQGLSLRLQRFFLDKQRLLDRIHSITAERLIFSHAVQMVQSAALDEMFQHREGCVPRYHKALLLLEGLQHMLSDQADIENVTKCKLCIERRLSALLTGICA
Chain of ABL1 (human) (P00519 whole entry, looked up): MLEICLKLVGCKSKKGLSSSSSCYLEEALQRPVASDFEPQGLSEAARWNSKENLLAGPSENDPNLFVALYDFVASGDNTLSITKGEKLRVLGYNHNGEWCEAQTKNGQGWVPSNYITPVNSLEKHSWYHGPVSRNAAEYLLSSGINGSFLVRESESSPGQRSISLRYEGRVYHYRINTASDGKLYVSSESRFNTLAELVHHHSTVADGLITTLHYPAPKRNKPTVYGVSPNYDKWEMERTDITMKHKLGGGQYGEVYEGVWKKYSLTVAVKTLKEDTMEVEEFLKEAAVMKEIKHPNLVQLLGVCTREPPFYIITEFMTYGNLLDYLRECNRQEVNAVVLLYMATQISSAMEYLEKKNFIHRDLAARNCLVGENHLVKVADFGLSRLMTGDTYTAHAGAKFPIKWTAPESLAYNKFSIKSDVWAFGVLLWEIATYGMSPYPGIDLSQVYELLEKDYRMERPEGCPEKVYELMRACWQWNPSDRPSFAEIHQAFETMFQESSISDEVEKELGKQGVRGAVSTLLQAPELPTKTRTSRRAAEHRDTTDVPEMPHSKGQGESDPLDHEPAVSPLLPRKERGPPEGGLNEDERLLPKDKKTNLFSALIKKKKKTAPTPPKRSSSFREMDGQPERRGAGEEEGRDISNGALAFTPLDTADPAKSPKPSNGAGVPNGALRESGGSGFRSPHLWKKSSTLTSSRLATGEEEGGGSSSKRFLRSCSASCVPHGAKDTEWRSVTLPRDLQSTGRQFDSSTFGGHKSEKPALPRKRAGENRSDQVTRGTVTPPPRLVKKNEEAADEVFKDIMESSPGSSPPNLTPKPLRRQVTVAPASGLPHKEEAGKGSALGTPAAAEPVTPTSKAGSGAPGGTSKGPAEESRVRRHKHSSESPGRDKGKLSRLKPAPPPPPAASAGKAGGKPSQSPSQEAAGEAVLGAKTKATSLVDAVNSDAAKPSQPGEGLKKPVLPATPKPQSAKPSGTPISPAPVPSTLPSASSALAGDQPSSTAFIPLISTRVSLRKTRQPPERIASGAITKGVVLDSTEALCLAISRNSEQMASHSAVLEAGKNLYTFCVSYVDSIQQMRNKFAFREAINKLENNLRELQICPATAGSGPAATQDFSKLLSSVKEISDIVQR
Chain of TSSK1B (human) (Q9BXA7 whole entry, looked up): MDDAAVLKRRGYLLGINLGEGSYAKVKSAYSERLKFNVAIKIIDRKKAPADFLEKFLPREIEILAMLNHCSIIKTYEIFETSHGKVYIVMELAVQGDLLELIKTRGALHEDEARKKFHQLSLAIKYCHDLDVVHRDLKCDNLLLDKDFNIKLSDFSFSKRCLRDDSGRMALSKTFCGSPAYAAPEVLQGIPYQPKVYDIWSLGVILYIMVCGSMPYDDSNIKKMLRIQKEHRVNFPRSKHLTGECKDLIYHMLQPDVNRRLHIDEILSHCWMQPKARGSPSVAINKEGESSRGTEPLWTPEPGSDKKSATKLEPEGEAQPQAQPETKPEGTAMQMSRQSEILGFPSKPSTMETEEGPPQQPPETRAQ

residual activity (MAPK7 (human); compound 1.0 µM): 91% | residual activity (MAPK7 (human); compound 10.0 µM): 89% | residual activity (PLK1 (human); compound 1.0 µM): 95% | residual activity (PLK1 (human); compound 10.0 µM): 111% | residual activity (STK24 (human); compound 1.0 µM): 84% | residual activity (STK24 (human); compound 10.0 µM): 70% | residual activity (MAP4K3 (human); compound 1.0 µM): 84% | residual activity (MAP4K3 (human); compound 10.0 µM): 73% | residual activity (TESK1 (human); compound 1.0 µM): 84% | residual activity (TESK1 (human); compound 10.0 µM): 103% | residual activity (STK33 (human); compound 1.0 µM): 91% | residual activity (STK33 (human); compound 10.0 µM): 92% | residual activity (ZAP70 (human); compound 1.0 µM): 84% | residual activity (ZAP70 (human); compound 10.0 µM): 83% | residual activity (WNK1 (human); compound 10.0 µM): 105% | residual activity ([1]; compound 1.0 µM): 88% | residual activity ([1]; compound 10.0 µM): 94% | residual activity (CSNK1G2 (human); compound 1.0 µM): 93% | residual activity (CSNK1G2 (human); compound 10.0 µM): 90% | residual activity (EIF2AK3 (human); compound 1.0 µM): 102% | residual activity (IRAK1 (human); compound 10.0 µM): 80% | residual activity (ULK1 (human); compound 1.0 µM): 86% | residual activity (ULK1 (human); compound 10.0 µM): 97% | residual activity (TTBK2 (human); compound 1.0 µM): 96% | residual activity (TTBK2 (human); compound 10.0 µM): 154% | residual activity (MAP4K5 (human); compound 1.0 µM): 80% | residual activity (MAP4K5 (human); compound 10.0 µM): 73% | residual activity (DDR2 (human); compound 1.0 µM): 92% | residual activity (DDR2 (human); compound 10.0 µM): 101% | residual activity ([2]; compound 1.0 µM): 98% | residual activity ([2]; compound 10.0 µM): 98% | residual activity (PDGFRA (human); compound 1.0 µM): 82% | residual activity (PDGFRA (human); compound 10.0 µM): 98% | residual activity (TTBK1 (human); compound 1.0 µM): 88% | residual activity (SIK3 (human); compound 1.0 µM): 91% | residual activity (SIK3 (human); compound 10.0 µM): 101% | residual activity (PTK6 (human); compound 1.0 µM): 91% | residual activity (PTK6 (human); compound 10.0 µM): 91% | residual activity ([3]; compound 1.0 µM): 95% | residual activity (SIK2 (human); compound 1.0 µM): 95% | residual activity (SIK2 (human); compound 10.0 µM): 79% | residual activity (CDK9 CCNT1 (human); compound 1.0 µM): 82% | residual activity (CDK9 CCNT1 (human); compound 10.0 µM): 83% | residual activity (ABL1 (human); compound 1.0 µM): 95% | residual activity (ABL1 (human); compound 10.0 µM): 103% | residual activity (TLK1 (human); compound 1.0 µM): 89% | residual activity (TLK1 (human); compound 10.0 µM): 104% | residual activity (PRKCG (human); compound 1.0 µM): 95% | residual activity (PRKCG (human); compound 10.0 µM): 97% | residual activity (TSSK1B (human); compound 10.0 µM): 83% | residual activity (TEK (human)): 103%
Compound: NCC(=O)Nc1ccc(-n2nc(C(F)(F)F)cc2-c2ccc3c(ccc4ccccc43)c2)cc1

residual activity (MAPK7 (human); compound 1.0 µM): 98% | residual activity (MAPK7 (human); compound 10.0 µM): 107% | residual activity (PLK1 (human); compound 1.0 µM): 104% | residual activity (PLK1 (human); compound 10.0 µM): 96% | residual activity (ULK2 (human); compound 1.0 µM): 106% | residual activity (ULK2 (human); compound 10.0 µM): 105% | residual activity (STK24 (human); compound 1.0 µM): 82% | residual activity (STK24 (human); compound 10.0 µM): 84% | residual activity (MAP4K3 (human); compound 1.0 µM): 100% | residual activity (MAP4K3 (human); compound 10.0 µM): 110% | residual activity (TESK1 (human); compound 1.0 µM): 77% | residual activity (TESK1 (human); compound 10.0 µM): 77% | residual activity (STK33 (human); compound 1.0 µM): 128% | residual activity (STK33 (human); compound 10.0 µM): 119% | residual activity (ZAP70 (human); compound 1.0 µM): 110% | residual activity (ZAP70 (human); compound 10.0 µM): 116% | residual activity (WNK1 (human); compound 1.0 µM): 104% | residual activity (WNK1 (human); compound 10.0 µM): 106% | residual activity ([1]; compound 1.0 µM): 106% | residual activity ([1]; compound 10.0 µM): 102% | residual activity (STK16 (human); compound 1.0 µM): 98% | residual activity (STK16 (human); compound 10.0 µM): 100% | residual activity (CSNK1G2 (human); compound 1.0 µM): 99% | residual activity (CSNK1G2 (human); compound 10.0 µM): 90% | residual activity (EIF2AK3 (human); compound 1.0 µM): 86% | residual activity (EIF2AK3 (human); compound 10.0 µM): 101% | residual activity (IRAK1 (human); compound 1.0 µM): 96% | residual activity (IRAK1 (human); compound 10.0 µM): 101% | residual activity (ULK1 (human); compound 1.0 µM): 104% | residual activity (ULK1 (human); compound 10.0 µM): 103% | residual activity (TTBK2 (human); compound 10.0 µM): 101% | residual activity (MAP4K5 (human); compound 1.0 µM): 109% | residual activity (MAP4K5 (human); compound 10.0 µM): 115% | residual activity (DDR2 (human); compound 1.0 µM): 102% | residual activity (DDR2 (human); compound 10.0 µM): 102% | residual activity ([2]; compound 1.0 µM): 105% | residual activity ([2]; compound 10.0 µM): 115% | residual activity (PDGFRA (human); compound 1.0 µM): 85% | residual activity (PDGFRA (human); compound 10.0 µM): 82% | residual activity (TTBK1 (human); compound 1.0 µM): 106% | residual activity (TTBK1 (human); compound 10.0 µM): 118% | residual activity (SIK3 (human); compound 1.0 µM): 91% | residual activity (SIK3 (human); compound 10.0 µM): 94% | residual activity (PTK6 (human); compound 10.0 µM): 114% | residual activity ([3]; compound 1.0 µM): 91% | residual activity ([3]; compound 10.0 µM): 112% | residual activity (SIK2 (human); compound 1.0 µM): 83% | residual activity (SIK2 (human); compound 10.0 µM): 91% | residual activity (ABL1 (human); compound 1.0 µM): 96% | residual activity (ABL1 (human); compound 10.0 µM): 101% | residual activity (TLK1 (human); compound 1.0 µM): 95% | residual activity (TLK1 (human); compound 10.0 µM): 106% | residual activity (PRKCG (human); compound 1.0 µM): 108% | residual activity (PRKCG (human); compound 10.0 µM): 112% | residual activity (TSSK1B (human); compound 1.0 µM): 89% | residual activity (TSSK1B (human); compound 10.0 µM): 100%
Compound: Nc1cccc2c1CN(C1CCC(=O)NC1=O)C2=O (configuration not stated)
